Measured values reported in paper PMC4372144 (Nature communications, 2015).

Tested on: Type II collagenase
Assay: Peptide cleavage kinetics, modified fluorescamine assay, Type II collagenase
Assay type: biochemical
Settings: 1 U ml^−1 Type II collagenase, pH 7.4, 37°C, duration of the assay 9 hours, fluorescamine read-out

Substance: GCEE-NGGSGGSN-GGGH-Methacrylate [Non-degradable peptide]
- protease-mediated cleavage of peptide: not detectable
